According to patent US8980933B2, “Combretastatin analogs for use in the treatment of cancer” (Universitat Bayreuth, priority 2010, dated 2015):
≈ marks a conversion by molar mass, not a printed value. Where “and” joins values, the source holds several entries; their conditions need not be identical. Equal values may be shown once.

Experiments:
[1] = system: L929 fibroblasts; assay: Cytotoxicity, L929; format: cell-based; conditions: Mus musculus, read-out: IC50 L-929
Procedure: (§1) The compounds 9a, 9b and 9c, which are exemplary compounds of formula (III) according to the present invention, as well as the reference compound 25f were tested in a similar manner.

[2] = system: KB-3-1 cervix carcinoma; assay: Cytotoxicity, KB-3-1; format: cell-based; conditions: Homo sapiens
Procedure: as §1

[3] = system: PC-3 prostata cancer; assay: Cytotoxicity, PC-3; format: cell-based
Procedure: as §1

[4] = system: PtK-2 opossum kidney cells; assay: Cytotoxicity, PtK-2; format: cell-based; conditions: PtK2; PtK-2 opossum kidney cells (non-malign)
Procedure: as §1

[5] = system: NHDF fibroblasts; assay: Cytotoxicity, NHDF; format: cell-based; conditions: Homo sapiens; NHDF fibroblasts (non-malign)
Procedure: as §1

[6] = system: HUVEC cells; assay: Minimal inhibitory concentration in HUVEC; format: cell-based
Procedure: as §1

[7] = system: 518A2 cells; assay: ROS generation, NBT assay, 518A2; format: cell-based, human; conditions: 50 μM, relative to untreated controls (1%), mean ± SD
Procedure: (§2) The generation of reactive oxygen species (ROS) in tumor cells is a sign of cellular stress resulting in severe damage of cellular components such as DNA, lipids or proteins.
(§3) For the NBT assay, HL-60 cells (0.5·10^6/mL) were plated in 96-well tissue culture plates, and test compounds were added after 24 h incubation at 37° C. to achieve a final concentration of 50 μM. […] After removal of the cell medium by centrifugation, the cells in each well were resuspended in 100 μL 0.1% NBT, and the plates were placed in the incubator for 1 h. The reduced NBT was solubilized with 100 μl 2 M KOH and 130 μl DMSO for 30 min. The absorbance was measured for each well at 630 and 405 nm (background) using an ELISA plate reader. The adherent 518A2 cells (0.5·10^4/mL) were seeded out in 96-well tissue culture plates after trypsinization and incubation for 24 h at 37° C. to allow attachment, then treated similarly, only that the medium was removed prior to incubation with NBT for 4 h. All experiments were carried out in quadruplicate.

[8] = system: 518A2 cells; assay: Mitochondrial membrane assay (JC-1), 518A2; format: cell-based, human; conditions: 5 μM, red/green fluorescence ratio relative to untreated controls (100%), mean ± SD
Procedure: (§4) Values represent means of four independent experiments±standard deviation.
(§5) Changes in mitochondrial membrane potential were determined by the Mitochondrial Membrane Detection Kit (Stratagene, La Jolla, Calif., USA) according to the manufacturer's procedure. 72 h following treatment with 5 μM of the test compounds, cell samples were centrifuged at 400 g for 5 min. The pellets were resuspended in 500 μL diluted JC-1 solution, incubated at 37° C. for 15 min (HL-60) and then centrifuged again for 5 min at 400 g. After washing, the pellets were resuspended in 100 μL PBS and transferred into the wells of a black 96-well plate. The red (λex=585 nm, λem=590 nm) and green (λex=510 nm, λem=527 nm) fluorescence intensities were measured and their ratio was calculated.

[9] = system: HL-60 cells; assay: Mitochondrial membrane assay (JC-1), HL-60; format: cell-based, human; conditions: 5 μM, red/green fluorescence ratio relative to untreated controls (100%), mean ± SD
Procedure: as §4, §5

[10] = system: HUVEC cells; assay: Tube formation assay on matrigel; format: cell-based
Procedure: 35 μL of media:matrigel (1:1) were added into wells of a 96-well plate and incubated at 37° C. for 30 minutes. A trypsinized HUVEC cell suspension was set to 800.000 cells/mL. In another 96-well plate 25 μL of the compound stock were serially diluted with 25 μL of media. 25 μL of compound dilutions and 25 μL of cell suspension were added to the matrigel coated 96-well plate and the cells were incubated over night. As a negative control, methanol was used as in place of the compound dilutions.

[11] = system: KB-V1/Vbl cervical carcinoma cells; assay: MTT cell growth inhibition, KB-V1/Vbl; format: cell-based, human; conditions: KB-V1/Vbl (Pgp+)
Procedure: The MCF-7/Topo cells were grown in E-MEM medium (Sigma) supplemented with 2.2 g/L NaHCO3, 110 mg/L sodium pyruvate and 5% FCS. The cells were maintained in a moisture-saturated atmosphere (5% CO2) at 37° C. in 75-mL culture flasks (Nunc, Wiesbaden, Germany). They were serially passaged following trypsinisation by 0.05% trypsin/0.02% EDTA (PAA laboratories, Clbe, Germany). Mycoplasma contamination was routinely monitored, and only mycoplasma-free cultures were used.
HL-60 leukemia cells (5×10^5/mL), and cells (5×10^4/mL) of 518A2 melanoma, HT-29 colon, KB-V1/Vbl cervix and MCF-7/Topo breast carcinoma were seeded out in 96-well tissue culture plates and cultured for 24 h. […] Blank and solvent controls were treated identically. MTT in phosphate buffered saline (5 mg/mL) was added to a final concentration of 0.05% (HL-60, 518A2) or 0.1% (HT-29, KB-V1/Vbl, MCF-7/Topo). After 2 h the formazan precipitate was dissolved in 10% sodium dodecylsulfate in DMSO containing 0.6% acetic acid in the case of the HL-60 cells. For the adherent 518A2, KB-V1/Vbl, MCF-7/Topo and HT-29 cells the microplates were swiftly turned to discard the medium before adding the solvent mixture. The microplates were gently shaken in the dark for 30 min and absorbance at 570 nm and 630 nm (background) was measured with an ELISA plate reader. All experiments were carried out in quadruplicate; the percentage of viable cells was calculated as the mean±SD with controls set to 100%.

[12] = system: MCF-7/Topo breast carcinoma cells; assay: MTT cell growth inhibition, MCF-7/Topo; format: cell-based, human; conditions: MCF-7/Topo (BCRP+)
Procedure: (§6) The effects of the compounds 5b, 6b, 8a, and 8e according to the present invention and of the reference compound 25f (Wang et al., J. Med. Chem. 2002, 45, 1697-1711) on cells of the following human tumor cell lines were evaluated: 518A2 melanoma, HL-60 leukemia, HT-29 colon carcinoma, KB-V1/Vbl cervical carcinoma, and MCF-7/Topo breast carcinoma.
(§7) The HL-60 cells were obtained from the German Collection of Biological Material (DSMZ), Braunschweig, Germany; the human 518A2 melanoma cells as well as the testicular germ cell tumor cell lines H12.1 and 1411HP were cultured in the department of oncology and hematology, Medical Faculty of the Martin-Luther University, Halle, Germany; the KBV1/Vbl and the MCF-7/Topo cells were obtained from the Institute of Pharmacy of the University Regensburg, Germany; and the colon HT-29 cells from the University Hospital Erlangen, Germany. The HL-60 and the HT-29 cells were grown in RPMI-1640 medium supplemented with 10% fetal calf serum (FCS), 100 IU/mL penicillin G, 100 μg/mL streptomycin sulfate, 0.25 μg/mL amphotericin B and 250 μg/mL gentamycine (all from Gibco, Egenstein, Germany). The 518A2 and the KB-V1/Vbl cells were cultured in Dulbecco's Modified Eagle Medium (D-MEM, Gibco) containing 10% FCS, 100 IU/mL penicillin G, 100 μg/mL streptomycin sulfate, 0.25 μg/mL amphotericin B and 250 μg/mL gentamycine. The MCF-7/Topo cells were grown in E-MEM medium (Sigma) supplemented with 2.2 g/L NaHCO3, 110 mg/L sodium pyruvate and 5% FCS. The cells were maintained in a moisture-saturated atmosphere (5% CO2) at 37° C. in 75-mL culture flasks (Nunc, Wiesbaden, Germany). They were serially passaged following trypsinisation by 0.05% trypsin/0.02% EDTA (PAA laboratories, Clbe, Germany). Mycoplasma contamination was routinely monitored, and only mycoplasma-free cultures were used.
MTT [3-(4,5-dimethylthiazol-2-yl)-2,5-diphenyltetrazolium bromide](ABCR) was used to identify viable cells which reduce it to a violet formazan (Mosmann, J. Immunol. Methods 1983, 65, 55-63). HL-60 leukemia cells (5×10^5/mL), and cells (5×10^4/mL) of 518A2 melanoma, HT-29 colon, KB-V1/Vbl cervix and MCF-7/Topo breast carcinoma were seeded out in 96-well tissue culture plates and cultured for 24 h. Incubation (5% CO2, 95% humidity, 37° C.) of the cells following treatment with the test compounds was continued for 24, 48 or 72 h. Blank and solvent controls were treated identically. […] The microplates were gently shaken in the dark for 30 min and absorbance at 570 nm and 630 nm (background) was measured with an ELISA plate reader. All experiments were carried out in quadruplicate; the percentage of viable cells was calculated as the mean±SD with controls set to 100%.

[13] = system: HL-60 cells; assay: ROS generation, NBT assay, HL-60; format: cell-based, human; conditions: 50 μM, relative to untreated controls (1%), mean ± SD
Procedure: as §2, §3

[14] = system: HL-60 cells; assay: TUNEL assay; format: cell-based, human; conditions: 10 μM; 16 h incubation
[15] = system: 1411HP germ cell tumor xenografts; conditions: 1411HP xenografts; cited from earlier work
[16] = system: H12.1 xenograft; conditions: H12.1 xenograft bearing mice; cited from earlier work
[17] = system: HT-29 colon carcinoma cells; assay: MTT cell growth inhibition, HT-29; format: cell-based, human; conditions: multi-drug resistant HT-29 colon cancer cells
Procedure: as §6, §7
MTT [3-(4,5-dimethylthiazol-2-yl)-2,5-diphenyltetrazolium bromide](ABCR) was used to identify viable cells which reduce it to a violet formazan (Mosmann, J. Immunol. Methods 1983, 65, 55-63). HL-60 leukemia cells (5×10^5/mL), and cells (5×10^4/mL) of 518A2 melanoma, HT-29 colon, KB-V1/Vbl cervix and MCF-7/Topo breast carcinoma were seeded out in 96-well tissue culture plates and cultured for 24 h. Incubation (5% CO2, 95% humidity, 37° C.) of the cells following treatment with the test compounds was continued for 24, 48 or 72 h. Blank and solvent controls were treated identically. MTT in phosphate buffered saline (5 mg/mL) was added to a final concentration of 0.05% (HL-60, 518A2) or 0.1% (HT-29, KB-V1/Vbl, MCF-7/Topo). After 2 h the formazan precipitate was dissolved in 10% sodium dodecylsulfate in DMSO containing 0.6% acetic acid in the case of the HL-60 cells. For the adherent 518A2, KB-V1/Vbl, MCF-7/Topo and HT-29 cells the microplates were swiftly turned to discard the medium before adding the solvent mixture. The microplates were gently shaken in the dark for 30 min and absorbance at 570 nm and 630 nm (background) was measured with an ELISA plate reader. All experiments were carried out in quadruplicate; the percentage of viable cells was calculated as the mean±SD with controls set to 100%.

[18] = system: vascular system of a fertilized chicken embryo; assay: CAM assay; format: in vivo; conditions: 10 nmol applied on the embryonal vessels; up to three days
Procedure: Compounds of the present invention were tested for anti-angiogenic and vasculature disrupting properties using the CAM assay. In this test the vascular system of a fertilized chicken embryo is used as a model (Wilting et al., Anat. Embryol. 1991, 183, 259-271).
Fertilized chicken eggs received from a nearby farm directly after laying have been incubated at a temperature of 36-38° C. and a relative humidity of 60%. During the growth the eggs have been held in an inclined position and turned from time to time in order to avoid an adherence to the shell. After four days each embryo was transferred into a cavity created by fixing a thin plastic foil on top of a cup and covered. This was done by opening the shell at the flat end where the air sac resides and letting the content slip out. There the growth continued for another 2-4 days until the first blood vessels became visible. Then 10 nmol of the substance to be tested (in 10 μL PBS with 1% DMF) have been applied directly on the embryonal vessels. As a reference PBS was used. Finally incubation continued for up to another three days (Dugan et al., Anat. Rec. 1991, 229, 125-128; Fisher, Tested studies for laboratory teaching 1993, 5, 105-115).

[19] = Bedford et al., Bioorg. Med. Chem. Lett. 1996; cited from earlier work

Compound	IC50 [1] [nM]	IC50 [2] [nM]	IC50 [3] [nM]	IC50 [4] [nM]	IC50 [5] [nM]	minimal inhibitory concentration (MIC) HUVEC [6] [µM]	also measured
COc1ccc(-c2ncn(C)c2-c2cc(Br)c(OC)c(Br)c2)cc1F [9b, 1-Methyl-4-(3-fluoro-4-methoxyphenyl)-5-(3,5-dibromo-4-methoxyphenyl)-imidazole]	21700	14	9.9	1180	395	0.257 (≈ 0.121 µg/mL)	–
COc1ccc(-c2ncn(C)c2-c2cc(I)c(OC)c(I)c2)cc1F [9c, 1-Methyl-4-(3-fluoro-4-methoxyphenyl)-5-(3,5-diiodo-4-methoxyphenyl)-imidazole]	18	2.5	3.3	333	3330	0.083 (≈ 0.0468 µg/mL)	–
COc1ccc(-c2c(-c3cc(OC)c(OC)c(OC)c3)ncn2C)cc1N [compound 25f, reference compound]	215	68	90	453	136	0.294 (≈ 0.109 µg/mL)	NBT Reduction [%] in 518A2 cells after 24 h [7]: 2.2 ± 0.4%; Intact mitochondria [%] in 518A2 cells after 72 h [8]: 87 ± 7%; Intact mitochondria [%] in HL-60 cells after 72 h [9]: 74% and 74 ± 13%; concentration that inhibits tube formation [10]: 130 ng/mL
COc1ccc(-c2ocnc2-c2cc(N)c(OC)c(OC)c2)cc1N [compound 8a, 4-(3′-Amino-4′,5′-dimethoxyphenyl)-5-(3″-amino-4″-methoxyphenyl)-oxazole]	–	–	–	–	–	–	efficacy (comparison) [11]: greater efficacy than 25f and 5b/6b; cytotoxicity / efficacy (comparison) [12]: greater efficacy than 25f and 5b/6b; NBT Reduction [%] in 518A2 cells after 24 h [7]: 1.5 ± 0.1%; NBT Reduction [%] in HL-60 cells after 24 h [13]: 3.5 ± 0.4%; Intact mitochondria [%] in 518A2 cells after 72 h [8]: 85 ± 7%; Intact mitochondria [%] in HL-60 cells after 72 h [9]: 62 ± 9%; apoptotic (TUNEL-positive) cells [14]: about 60%; inhibition of tube formation ([10]; 7.72 ng/mL): pronounced inhibition of tube formation
N.N.[Cl][Pt][Cl] [cisplatin]	–	–	–	–	–	–	tumor response [15]: only a transient growth inhibition followed by renewed tumor progress; tumor response [16]: complete regressions
COc1ccc(/C=C\c2cc(OC)c(OC)c(OC)c2)cc1O [CA-4, combretastatin A-4, reference compound]	–	–	–	–	–	–	cytotoxicity (comparison) [17]: lower cytotoxicities than compounds 5b and 6b; effect on embryonal blood vessels [18]: dramatic vessel shrinkage within 24 h after treatment and to a complete degradation of the vascular system within three days
COc1ccc(/C=C\c2cc(OC)c(OC)c(OC)c2)cc1OP(=O)(O)O [combretastatin A-4-phosphate]	–	–	–	–	–	–	solubility in water [19]: about 5 mg/mL
